Assays:
Assay type in all cases: cell-based
[1] = molecular target: T1, Cystic fibrosis transmembrane conductance regulator (Homo sapiens, UniProt P13569, F508DEL); assay: (§1) Corrector activity at HRP-fused CFTR F508del mutant (unknown origin) expressed in human CFBE41o cells assessed as increase in matured protein levels at cell surface after 18 to 24 hrs by luminescence assay
[2] = test system: Cystic fibrosis transmembrane conductance regulator (Homo sapiens), P13569 [F508del]; assay: Corrector activity at HRP-fused CFTR F508del mutant (unknown origin) expressed in human CFBE41o cells assessed as increase in matured protein levels at cell surface at 20 uM after 18 to 24 hrs by luminescence assay relative to 3-[(2R,4R)-4-({[l-(2,2-difluoro-l,3-benzodioxol-5-yl)cyclopropyl]carbonyl}amino)-7-methoxy-3,4-dihydro-2H-chromen-2-yl]benzoic acid
[3] = molecular target: T1, Cystic fibrosis transmembrane conductance regulator; assay: as §1, with “hrs in presence of co-corrector 3-[(2R,4R)-4-({[l-(2,2-difluoro-l,3-benzodioxol-5-yl)cyclopropyl]carbonyl}amino)-7-methoxy-3,4-dihydro-2H-chromen-2-yl]benzoic acid” for “hrs”
[4] = test system: Cystic fibrosis transmembrane conductance regulator (Homo sapiens), P13569 [F508del]; assay: Corrector activity at HRP-fused CFTR F508del mutant (unknown origin) expressed in human CFBE41o cells assessed as increase in matured protein levels at cell surface at 20 uM after 18 to 24 hrs in presence of co-corrector 3-[(2R,4R)-4-({[l-(2,2-difluoro-l,3-benzodioxol-5-yl)cyclopropyl]carbonyl}amino)-7-methoxy-3,4-dihydro-2H-chromen-2-yl]benzoic acid by luminescence assay relative to co-corrector

T1 sequence (P13569 as listed by the source): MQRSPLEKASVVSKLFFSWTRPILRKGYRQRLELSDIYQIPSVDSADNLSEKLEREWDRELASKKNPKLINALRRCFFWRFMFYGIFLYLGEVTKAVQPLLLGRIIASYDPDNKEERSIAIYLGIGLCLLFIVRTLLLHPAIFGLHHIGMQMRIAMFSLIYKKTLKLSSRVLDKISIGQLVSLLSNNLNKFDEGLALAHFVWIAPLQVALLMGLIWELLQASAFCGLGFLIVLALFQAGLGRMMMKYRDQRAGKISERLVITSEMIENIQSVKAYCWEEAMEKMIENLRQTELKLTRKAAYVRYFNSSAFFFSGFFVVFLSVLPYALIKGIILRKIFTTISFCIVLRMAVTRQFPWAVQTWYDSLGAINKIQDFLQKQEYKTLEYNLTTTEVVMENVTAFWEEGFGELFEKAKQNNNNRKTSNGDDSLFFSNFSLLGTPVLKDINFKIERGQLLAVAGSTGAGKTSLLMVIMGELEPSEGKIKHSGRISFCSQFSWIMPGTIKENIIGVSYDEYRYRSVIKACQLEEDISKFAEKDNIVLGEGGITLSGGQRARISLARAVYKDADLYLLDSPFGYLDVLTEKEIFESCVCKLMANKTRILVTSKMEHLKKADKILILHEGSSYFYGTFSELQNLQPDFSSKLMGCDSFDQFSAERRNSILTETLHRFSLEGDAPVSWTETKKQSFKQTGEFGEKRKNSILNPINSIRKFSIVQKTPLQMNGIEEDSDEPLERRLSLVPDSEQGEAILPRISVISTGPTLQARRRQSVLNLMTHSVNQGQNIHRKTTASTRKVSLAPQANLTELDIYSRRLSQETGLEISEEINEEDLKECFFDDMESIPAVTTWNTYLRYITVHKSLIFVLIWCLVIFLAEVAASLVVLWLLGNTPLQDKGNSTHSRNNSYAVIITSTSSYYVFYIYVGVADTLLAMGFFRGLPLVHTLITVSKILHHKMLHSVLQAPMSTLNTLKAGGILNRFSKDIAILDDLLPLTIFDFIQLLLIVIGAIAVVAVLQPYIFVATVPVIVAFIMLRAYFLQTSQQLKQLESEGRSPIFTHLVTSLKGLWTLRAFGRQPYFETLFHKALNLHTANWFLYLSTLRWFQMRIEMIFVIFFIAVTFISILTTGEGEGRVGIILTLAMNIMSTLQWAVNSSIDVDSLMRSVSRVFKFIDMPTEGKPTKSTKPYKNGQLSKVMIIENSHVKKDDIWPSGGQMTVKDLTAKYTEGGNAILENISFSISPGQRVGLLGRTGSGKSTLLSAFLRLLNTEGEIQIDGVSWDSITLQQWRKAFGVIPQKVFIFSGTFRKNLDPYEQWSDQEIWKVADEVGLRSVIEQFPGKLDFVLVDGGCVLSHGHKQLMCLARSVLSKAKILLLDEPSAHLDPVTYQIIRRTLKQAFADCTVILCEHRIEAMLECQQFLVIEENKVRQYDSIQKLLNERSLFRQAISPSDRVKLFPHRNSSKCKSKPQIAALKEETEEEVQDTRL
Chain of Cystic fibrosis transmembrane conductance regulator (Homo sapiens), P13569 [F508del] (P13569 as listed by the source): as above

Compound	EC50 [1] [nM]	%max [2] [%]	EC50 [3] [nM]	%max [4] [%]
COc1ncc(C(C)C)cc1CN[C@H]1[C@H](C(C)(C)OC)[C@@H](C(=O)O)N(C(=O)C2CCCCC2)[C@H]1c1ccccc1	1000 to 10000	> 200	1000 to 10000	> 350
COc1cc2c(cc1CN[C@H]1[C@H](C(C)(C)C)[C@@H](C(=O)O)N(C(=O)C3CCCCC3)[C@H]1c1ccccc1)C(C)(C)CCC2(C)C	< 1000	100 to 200	< 1000	> 350
COc1ccc(C(C)(C)C)cc1CN[C@H]1[C@H](C(C)(C)C)[C@@H](C(=O)O)N(C(=O)C2CCCCC2)[C@H]1c1cccnc1N(C)C	< 1000	> 200	< 1000	> 350
COc1ccc([Si](C)(C)C)cc1CN[C@H]1[C@H](C(C)(C)C)[C@@H](C(=O)O)N(C(=O)C2CCCCC2)[C@H]1c1ccccc1	< 1000	> 200	< 1000	> 350
COc1ccc(C(C)(C)C)cc1CN[C@H]1[C@H](C(C)(C)C)[C@@H](C(=O)O)N(C(=O)[C@@H]2Cc3ccccc3O2)[C@H]1c1ccccc1	< 1000	> 200	< 1000	> 350

Further lines, results first:

EC50 [1] [nM]	%max [2] [%]	EC50 [3] [nM]	%max [4] [%]	Compound
< 1000	> 200	< 1000	> 350	COc1ccc(-c2cccc(F)c2F)cc1CN[C@H]1[C@H](C(C)(C)C)[C@@H](C(=O)O)N(C(=O)C2CCCCC2)[C@H]1c1ccccc1
< 1000	> 200	< 1000	> 350	CC(C)c1ccccc1[C@H]1[C@@H](NCc2cccc3c2OC(C)(C)C3)[C@H](C(C)(C)C)[C@@H](C(=O)O)N1C(=O)[C@@H]1CCCCO1
< 1000	> 200	< 1000	> 350	COc1ncc(C2CCC2)cc1CN[C@H]1[C@H](C(C)(C)C)[C@@H](C(=O)O)N(C(=O)C2CCCCC2)[C@H]1c1ccccc1C
< 1000	> 200	< 1000	> 350	COc1ccc(C2(C)CCC2)cc1CN[C@H]1[C@H](C(C)(C)C)[C@@H](C(=O)O)N(C(=O)[C@@H]2CCCCO2)[C@H]1c1ccccc1C

Reference: ChEMBL document CHEMBL4145658, “Modulators of the Cystic Fibrosis Transmembrane Conductance Regulator Protein” (ACS Med Chem Lett, 2018)
